Assay results as given in patent publication US20040176350A1, “Carbapenem compound” (priority 2001, published 2004).

Assay: oral absorption test in rats: plasma concentration of meropenem produced by hydrolysis, by HPLC
Assay type: in vivo
Settings: 20 mg/kg oral, cilastatin 50 mg/kg pre-administered
Experimental: An enzyme inhibitor (cilastatin) (50 mg/kg) was pre-administered to rats (3 per group) and the compound of the present invention (compound of Example 1, 20 mg/kg) was orally administered. The plasma concentration of meropenem produced by hydrolysis was measure at 0.125, 0.25, 0.5, 1.0, 1.5, 2.0 and 3.0 hr by HPLC and the area under plasma concentration-time curve (AUC) was determined.

CCCC(=O)OCOC(=O)N1C[C@@H](SC2=C(C(=O)OCOC(=O)C(C)(C)C)N3C(=O)[C@H]([C@@H](C)O)[C@H]3[C@H]2C)C[C@H]1C(=O)N(C)C [Example 1, pivaloyloxymethyl (1R,5S,6S)-2-[(3S,5S)-(5-N,N-dimethylaminocarbonyl-1-butyryloxymethyloxycarbonyl)-pyrrolidin-3-ylthio]-6-[(1R)-1-hydroxyethyl]-1-methylcarbapen-2-em-3-carboxylate]
AUC0-3 hr (area under plasma concentration-time curve of meropenem): 5.06 µg·h/mL
Average plasma concentration (meropenem in plasma at 0.125 hr): 0.62 µg/mL
Average plasma concentration (meropenem in plasma at 0.25 hr): 1.31 µg/mL
Average plasma concentration (meropenem in plasma at 0.5 hr): 2.31 µg/mL
Average plasma concentration (meropenem in plasma at 1.0 hr): 2.59 µg/mL
Average plasma concentration (meropenem in plasma at 1.5 hr): 2.27 µg/mL
Average plasma concentration (meropenem in plasma at 2.0 hr): 1.56 µg/mL
Average plasma concentration (meropenem in plasma at 3.0 hr): 0.55 µg/mL
